Data as given in PubChem BioAssay AID1259411 (Chemical Carcinogenesis Research Information System (CCRIS), 2018).
The source made the active and inactive calls. The rule behind the calls is not given here.

Tested on: rodent carcinogenicity bioassays, tumor incidence
Assay: CCRIS carcinogenicity studies
Procedure, shortened: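 NCI-built, expert-reviewed records of carcinogenicity and related test outcomes (mutagenicity, tumor promotion/inhibition) compiled from published and report sources, historical span 1985-2011, not updated.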

Q: Which results are given for `C=CCc1ccc2c(c1)OCO2`?
A: carcinogen call (Species: MOUSE, Strain/Sex: B6AKF1/MALE,FEMALE, Route: GAVAGE, ORAL, Dose: 464 MG/KG FROM D 7-28 OF LIFE THEN 1112 MG/KG IN DIET, Tumor Site: Type of Lesion: LIVER: HEPATOCELLULAR TUMOR): active; positive; carcinogen call (Species: MOUSE, Strain/Sex: B6C3F1/MALE,FEMALE, Route: GAVAGE, ORAL, Dose: 464 MG/KG FROM D 7-28 OF LIFE THEN 1112 MG/KG IN DIET, Tumor Site: Type of Lesion: LIVER: HEPATOCELLULAR TUMOR): active; positive; carcinogen call (Species: MOUSE, Strain/Sex: BALB/MALE, Route: ORAL, Dose: 0, 4000 PPM IN DIET FOR 52 WK (STUDY DURATION: 75 WK), Tumor Site: Type of Lesion: LIVER: HEPATOCELLULAR CARCINOMA, HEPATOCELLULAR ADENOMA): active; positive; carcinogen call (Species: MOUSE, Strain/Sex: CD-1/MALE, Route: ORAL, Dose: 4000, 5000 MG/KG IN DIET FOR 13 MO, Tumor Site: Type of Lesion: LIVER: HEPATOCELLULAR CARCINOMA): active; positive; carcinogen call (Species: MOUSE, Strain/Sex: CD-1/MALE, Route: SUBCUTANEOUS, Dose: 0.66, 6.6 MG (TOTAL DOSES) IN TRICAPRYLIN IN 3 WK, Tumor Site: Type of Lesion: LIVER): active; positive; carcinogen call (Species: MOUSE, Strain/Sex: SWISS/FEMALE, Route: SUBCUTANEOUS, Dose: 0.66, 6.6 MG (TOTAL DOSES) IN TRICAPRYLIN IN 3 WK, Tumor Site: Type of Lesion: LUNG: ADENOMA, ADENOCARCINOMA): active; positive; carcinogen call (Species: MOUSE, Strain/Sex: SWISS/MALE, Route: SUBCUTANEOUS, Dose: 0.66, 6.6 MG (TOTAL DOSES) IN TRICAPRYLIN IN 3 WK, Tumor Site: Type of Lesion: LIVER: HEPATOMA): active; positive; carcinogen call (Species: RAT, Strain/Sex: OSBORNE-MENDEL/MALE,FEMALE, Route: ORAL, Dose: 100, 500, 1000, 5000 MG/KG IN DIET FOR 2 YR, Dose: 100, 500, 1000, 5000 MG/KG IN DIET FOR 2 YR, Tumor Site: Type of Lesion: LIVER: HEPATOCELLULAR CARCINOMA, CHOLANGIOCARCINOMA): active; positive

Q: What does the source list for `CO/N=C(/C1=NOCCO1)c1ccccc1Oc1ncnc(Oc2ccccc2Cl)c1F`?
A: carcinogen call (Species: Mouse, Strain/Sex: CD-1/Female (50/Group), Route: Oral, Dose: 0, 29.5, 204.0, 1265.1 mg/kg/day of 94.3% - 94.5% fluoxastrobin in diet for 18 mo, study duration 18 mo, Dose: 0, 29.5, 204.0, 1265.1 mg/kg/day of 94.3% - 94.5% fluoxastrobin in diet for 18 mo, study duration 18 mo): inactive; negative; carcinogen call (Species: Mouse, Strain/Sex: CD-1/Male (50/Group), Route: Oral, Dose: 0, 18.6, 135.4, 775.6 mg/kg/day of 94.3% - 94.5% fluoxastrobin in diet for 18 mo, study duration 18 mo, Dose: 0, 18.6, 135.4, 775.6 mg/kg/day of 94.3% - 94.5% fluoxastrobin in diet for 18 mo, study duration 18 mo): inactive; negative; carcinogen call (Species: Rat, Strain/Sex: Wistar/Female (50/Group), Route: Oral, Dose: 0, 6.9, 35.2, 181.3, 1083.2 mg/kg/day of 94.3-94.6% fluoxastrobin in diet for 2 yr, study duration 2 yr, Dose: 0, 6.9, 35.2, 181.3, 1083.2 mg/kg/day of 94.3-94.6% fluoxastrobin in diet for 2 yr, study duration 2 yr, Tumor Site: Type of Lesion: Uterus: adenocarcinoma (highest dose only)): active; positive; carcinogen call (Species: Rat, Strain/Sex: Wistar/Male (50/Group), Route: Oral, Dose: 0, 2.1, 5.2, 53.0, 271.9 mg/kg/day of 94.3-94.6% fluoxastrobin in diet for 2 yr, study duration 2 yr, Dose: 0, 2.1, 5.2, 53.0, 271.9 mg/kg/day of 94.3-94.6% fluoxastrobin in diet for 2 yr, study duration 2 yr): inactive; negative

Q: Which carcinogen call (Species: MOUSE, Strain/Sex: ICR/MALE,FEMALE, Route: ORAL, Dose: 0, 0.3% IN DRINKING WATER FOR LIFE (STUDY DURATION: 50-60 WK), Tumor Site: Type of Lesion: LIVER: HEPATOCELLULAR CARCINOMA, MAMMARY GLAND: ADENOCARCINOMA OR SQUAMOUS CELL CARCINOMA) does the source give for `Nc1ccc(N=Nc2ccc(-c3ccc(N=Nc4c(S(=O)(=O)O)cc5c(c4N)C(=O)/C(=N/Nc4ccccc4)C(S(=O)(=O)O)=C5)cc3)cc2)c(N)c1` here?
A: active; positive

Q: What about the carcinogen call (Species: RAT, Strain/Sex: F344/FEMALE, Route: ORAL, Dose: 0, 190, 375, 750, 1500, 3000 PPM IN DIET FOR 91 D (STUDY DURATION:93 D), Dose: 0, 190, 375, 750, 1500, 3000 PPM IN DIET FOR 91 D (STUDY DURATION:93 D), Tumor Site: Type of Lesion: LIVER: NEOPLASTIC NODULE, FOCI OF CELLULAR ALTERATION OR BASOPHILIC FOCI) of the same compound?
A: active; positive

Q: And the carcinogen call (Species: RAT, Strain/Sex: F344/MALE, Route: ORAL, Dose: 0, 190, 375, 750, 1500, 3000 PPM IN DIET FOR 91 D (STUDY DURATION: 93 D), Dose: 0, 190, 375, 750, 1500, 3000 PPM IN DIET FOR 91 D (STUDY DURATION: 93 D), Tumor Site: Type of Lesion: LIVER: HEPATOCELLULAR CARCINOMA OR NEOPLASTIC NODULE, FOCI OF CELLULAR ALTERATION OR BASOPHILIC FOCI)?
A: active; positive

Q: What does the source list for `C=CC(=O)NCO`?
A: carcinogen call (Species: MOUSE, Strain/Sex: B6C3F1/FEMALE, Route: GAVAGE, Dose: 0, 25, 50 MG/KG IN DEIONIZED WATER 5 D/WK FOR 103 WK (STUDY DURATION: 105 WK), Dose: 0, 25, 50 MG/KG IN DEIONIZED WATER 5 D/WK FOR 103 WK (STUDY DURATION: 105 WK), Tumor Site: Type of Lesion: HARDERIAN GLAND: ADENOMA, ADENOMA OR CARCINOMA, LIVER: HEPATOCELLULAR ADENOMA, HEPATOCELLULAR ADENOMA OR CARCINOMA, LUNG, Tumor Site: Type of Lesion: HARDERIAN GLAND: ADENOMA, ADENOMA OR CARCINOMA, LIVER: HEPATOCELLULAR ADENOMA, HEPATOCELLULAR ADENOMA OR CARCINOMA, LUNG): active; positive; carcinogen call (Species: MOUSE, Strain/Sex: B6C3F1/MALE, Route: GAVAGE, Dose: 0, 25, 50 MG/KG IN DEIONIZED WATER 5 D/WK FOR 103 WK (STUDY DURATION: 105 WK), Dose: 0, 25, 50 MG/KG IN DEIONIZED WATER 5 D/WK FOR 103 WK (STUDY DURATION: 105 WK), Tumor Site: Type of Lesion: HARDERIAN GLAND: ADENOMA, ADENOMA OR CARCINOMA, LIVER: HEPATOCELLULAR ADENOMA, HEPATOCELLULAR CARCINOMA, LUNG: ALVEOLAR/, Tumor Site: Type of Lesion: HARDERIAN GLAND: ADENOMA, ADENOMA OR CARCINOMA, LIVER: HEPATOCELLULAR ADENOMA, HEPATOCELLULAR CARCINOMA, LUNG: ALVEOLAR/): active; positive; carcinogen call (Species: RAT, Strain/Sex: F344/FEMALE, Route: GAVAGE, Dose: 0, 6, 12 MG/KG IN DEIONIZED WATER 5 D/WK FOR 103 WK (STUDY DURATION: 105 WK), Dose: 0, 6, 12 MG/KG IN DEIONIZED WATER 5 D/WK FOR 103 WK (STUDY DURATION: 105 WK)): inactive; negative; carcinogen call (Species: RAT, Strain/Sex: F344/MALE, Route: GAVAGE, Dose: 0, 6, 12 MG/KG IN DEIONIZED WATER 5 D/WK FOR 103 WK (STUDY DURATION: 105 WK), Dose: 0, 6, 12 MG/KG IN DEIONIZED WATER 5 D/WK FOR 103 WK (STUDY DURATION: 105 WK)): inactive; negative

Q: How did the carcinogen call (Species: MOUSE, Strain/Sex: B6C3F1/FEMALE, Route: ORAL, Dose: 0, 625, 1250, 2500 PPM IN DIET FOR 18 MO (STUDY DURATION: 18 MO), Dose: 0, 625, 1250, 2500 PPM IN DIET FOR 18 MO (STUDY DURATION: 18 MO), Tumor Site: Type of Lesion: LIVER: ADENOMA, CARCINOMA, STOMACH: PAPILLOMA) turn out when `O=C(O)c1cc(Oc2ccc(C(F)(F)F)cc2Cl)ccc1[N+](=O)[O-]` was run?
A: active; positive

Q: What about the carcinogen call (Species: MOUSE, Strain/Sex: B6C3F1/MALE, Route: ORAL, Dose: 0, 625, 1250, 2500 PPM IN DIET FOR 18 MO (STUDY DURATION: 18 MO), Dose: 0, 625, 1250, 2500 PPM IN DIET FOR 18 MO (STUDY DURATION: 18 MO), Tumor Site: Type of Lesion: LIVER: ADENOMA, CARCINOMA, STOMACH: PAPILLOMA) of the same compound?
A: active; positive

Q: And the carcinogen call (Species: MOUSE, Strain/Sex: CR-CD-1/FEMALE, Route: ORAL, Dose: 0, 7.5, 4.5, 270 PPM IN DIET FOR 24 MO (STUDY DURATION: 24 MO), Dose: 0, 7.5, 4.5, 270 PPM IN DIET FOR 24 MO (STUDY DURATION: 24 MO), Tumor Site: Type of Lesion: LIVER: ADENOMA OR CARCINOMA)?
A: active; positive

Q: What about the carcinogen call (Species: MOUSE, Strain/Sex: CR-CD-1/MALE, Route: ORAL, Dose: 0, 7.5, 4.5, 270 PPM IN DIET FOR 24 MO (STUDY DURATION: 24 MO), Dose: 0, 7.5, 4.5, 270 PPM IN DIET FOR 24 MO (STUDY DURATION: 24 MO), Tumor Site: Type of Lesion: LIVER: ADENOMA OR CARCINOMA) of the same compound?
A: active; positive

Q: What about the carcinogen call (Species: RAT, Strain/Sex: F344/MALE, FEMALE, Route: ORAL, Dose: 0, 25, 150, 500, 2500, 5000 PPM IN DIET FOR 2 YR (STUDY DURATION: 2 YR), Dose: 0, 25, 150, 500, 2500, 5000 PPM IN DIET FOR 2 YR (STUDY DURATION: 2 YR)) of the same compound?
A: inactive; negative

Q: With `O=C(OOC(=O)c1ccccc1)c1ccccc1` as the compound, how does the carcinogen call (Species: MOUSE, Strain/Sex: SENCAR/FEMALE, Route: DERMAL, Dose: 0, 0.2 ML OF 100 MG/ML SOLUTION IN ACETONE 2 D/WK FOR 51 WK (STUDY DURATION: 52 WK), Tumor Site: Type of Lesion: SKIN: SQUAMOUS CELL CARCINOMA OR EPIDERMAL HYPERPLASIA) read?
A: active; positive
